In data set [1] the target is T1, SaHPPK (Staphylococcus aureus, UniProt A0A0H3JXR3). As to the kind of experiment: Surface plasmon resonance (SPR) with biotinylated SaHPPK on NeutrAvidin chip. The data set is classed as binding. Background: Surface plasmon resonance follows binding to a sensor surface in real time, without labels.
The next data set deals with EcHPPK. Conditions: cited from earlier work.
Data set [2] concerns the target T1, SaHPPK. The data set is described as follows: biochemical. The format is binding.
Another data set deals with E. coli HPPK. Conditions: read-out: Km for the E. coli enzyme; different assays; cited from earlier work.
In data set [3] the target is T1, SaHPPK. The format is binding.
The test system of data set [4] is SaHPPK. As to the kind of experiment: Differential scanning fluorimetry (DSF) assay for ligand binding. Also noted: species or system Staphylococcus aureus. Conditions: for increase in unfolding temperature (Tm): saturating ligand. The method, then:
A 96-well plate containing solutions of 2–5 µM SaHPPK, 10× Sypro orange dye and 500 µM of test compound in buffer (50 mM HEPES (pH 8.0), 1% sorbitol, 2.0 mM DTT, 10 mM MgCl2) was heated from […] at a rate of 1.0 K min^−1. The fluorescence intensity was measured with excitation/emission wavelengths of 583/610 nm. Tm and ΔTm values were determined from the melting curves obtained.
In general terms: Differential scanning fluorimetry follows unfolding on heating by fluorescence.

A further data set has as its system E. coli. As to the kind of experiment: E. coli cell-based growth inhibition assays. Conditions: data not shown.
Data set [5] deals with T1, SaHPPK. The data set is described as follows: KinaseGlo luminescent biochemical assay of HPPK activity.
Another data set concerns B. anthracis DHPS. Conditions: co-crystallisation; cited from earlier work.
Data set [6] can be described thus: Solubility estimated from ITC experiments. The format is physicochemical. Conditions: ITC buffer, estimated assuming 1:1 binding stoichiometry.
On the set-up of data set [7]: method as in PMID 17511860. Conditions: in vivo mouse model; cited from earlier work.
Setting [8] is: ITC, 298 K, in the presence of 1 mM AMPCPP.
The mark [9] stands for this setting: SPR steady-state, 293 K, ligand alone, read-out: K d SPR.
The mark [10] stands for this setting: ITC, 298 K, ligand alone, read-out: K d ITC.
Setting [11] is: SPR, 1:1 kinetic interaction model.
Where [12] appears, read: fluorescence-based methods, in the presence of Mg2+, read-out: binding affinity (K d) of EcHPPK.
Where [13] appears, read: read-out: dissociation constant for EcHPPK.
[14] abbreviates: in the absence of Mg2+, data not shown.

In brackets after ≈: the same amount, converted by molar mass. Several values for one entry are separate records, joined by “and”; a condition that tells them apart may be missing. Equal values may be shown once. Read-outs that look alike come from different tables or passages of the source.

T1 sequence (A0A0H3JXR3 entry or part of it): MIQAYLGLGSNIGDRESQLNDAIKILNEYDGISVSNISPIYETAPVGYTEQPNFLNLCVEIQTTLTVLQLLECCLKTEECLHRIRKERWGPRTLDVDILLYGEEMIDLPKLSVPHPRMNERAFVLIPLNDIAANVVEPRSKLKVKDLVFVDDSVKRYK

Turning to `Nc1nc2c(c(=O)[nH]1)N=C(CO)CN2` [HMDP, 6-hydroxymethyl-7,8-dihydropterin], at SaHPPK [1] (K d SPR, SPR steady-state, 293 K, in the presence of AMPCPP), the Kd was 3.6 ± 0.3 µM. Further, the Kd on SaHPPK [1] (K d SPR, SPR steady-state, 293 K, ligand alone) is ~100 µM and 100 µM. Besides, at EcHPPK (in the presence of Mg2+ and AMPCPP, read-out: binding affinity of EcHPPK), the Kd is 0.036 to 0.17 µM. Further, at SaHPPK [2] (setting [8]), the “N (binding stoichiometry)” value was determined as 1.23±0.15, the TΔS was -3.1 ± 0.9 kcal/mol, the ΔG is -7.4 ± 0.2 kcal/mol and the ΔH is -10.5 ± 1.0 kcal/mol. Further, the Kd at SaHPPK [2] (K d ITC, ITC, 298 K, in the presence of 1 mM AMPCPP) was ~4 µM and 4 µM. In addition, the “binding by ITC” value at SaHPPK [2] (in the presence of the inhibitor 8-mercaptoguanine) is listed as “could not be detected”. Further, the Km in the data set on E. coli HPPK was 0.7 to 1.6 µM.
In the case of `Nc1nc2nc(S)[nH]c2c(=O)[nH]1` [8-mercaptoguanine], the “K d indicated by NMR exchange regime” value on SaHPPK [3] is listed as “low µM range”. Besides, the “times more tightly bound than HMDP” value at SaHPPK [1] is listed as approximately 10 times. Besides, the Kd is 8.1 ± 1.6 µM on SaHPPK [1] (SPR steady-state, 293 K, in the presence of 5 mM ATP, read-out: K d SPR); 10.8 ± 0.4 µM on SaHPPK [1] (setting [9]); 11.3 ± 2.3 µM at SaHPPK [2] (ITC, 298 K, in the presence of 1 mM AMPCPP, read-out: K d ITC); 12.8 ± 3.4 µM on SaHPPK [2] (setting [10]); ~13 µM and ~12 µM at SaHPPK [2] (absence of cofactor, read-out: equilibrium dissociation constant Kd, summary value from ITC and SPR). Moreover, in the data set with SaHPPK [4] (500 µM ligand, 5 µM enzyme), the “increase in Tm compared to apo” value is 3.4 °C. Also, the growth inhibition entry with E. coli was “did not observe growth inhibition”. Further, on SaHPPK [5] (HMDP 0.3 µM, ATP 0.2 µM, read-out: IC50 for inhibition of SaHPPK), the half-inhibitory concentration (IC50) was 41 µM and ~41 µM. For the same molecule, the “N (binding stoichiometry)” value at SaHPPK [2] (setting [8]) was 0.96±0.09; on SaHPPK [2] (ITC, 298 K, ligand alone), 1.00±0.06. Moreover, the TΔS on SaHPPK [2] (setting [8]) is -10.4 ± 1.5 kcal/mol; on SaHPPK [2] (ITC, 298 K, ligand alone), -12.9 ± 3.5 kcal/mol. In addition, the ΔG on SaHPPK [2] (setting [8]) is -6.8 ± 0.1 kcal/mol; at SaHPPK [2] (ITC, 298 K, ligand alone), -6.7 ± 0.2 kcal/mol. Also, the ΔH on SaHPPK [2] (setting [8]) was -17.2 ± 1.4 kcal/mol; at SaHPPK [2] (ITC, 298 K, ligand alone) it was -19.6 ± 3.4 kcal/mol. This molecule showed a ligand efficiency on SaHPPK [2] (K d ∼13 µM over 12 heavy atoms) of 2.3 kJ/heavy atom. For the same molecule, the “binding and inhibition of B. anthracis DHPS” value with B. anthracis DHPS is “bind to, but not inhibit”. In data set [6], the solubility is approximately 300 µM (≈ 55 µg/mL). Further, the “antiviral activity and toxicity” value in data set [7] is on record as “Antiviral activity,without significant toxicity”.
Turning to Mg-GTP, the “affinity of EcHPPK, fold less than for Mg-ATP” value in the data set on EcHPPK is listed as 260 fold.
For `Nc1nc2nc[nH]c2c(=O)[nH]1` [guanine], at SaHPPK [1] (data not shown), the “affinity by SPR” value was “undetectable”.
`Nc1ncnc2c1ncn2C1OC(COP(=O)(O)CP(=O)(O)OP(=O)(O)O)C(O)C1O` (stereo not drawn) [AMPCPP, α,β-methylene adenosine 5′-triphosphate]: the Kd is 7.7 ± 0.4 µM on SaHPPK [1] (setting [9]); 5.4 ± 0.3 µM at SaHPPK [1] (SPR, from k d/k a ratio, read-out: K d from kinetic interaction model); 0.08 to 0.45 µM at EcHPPK (setting [12]); 0.45 µM at EcHPPK (setting [13]); 3.1 ± 1.2 µM on SaHPPK [2] (setting [10]). The k a at SaHPPK [1] (setting [11]) is recorded as 8.8±1.3×10^4 M^−1 s^−1. In addition, on SaHPPK [1] (setting [11]), the k d turned out to be 0.5 ± 0.1 s⁻¹. For the same molecule, the “increase in unfolding temperature (Tm)” value in the data set with SaHPPK [4] worked out at 11 °C. Moreover, the “fold tighter binding than ATP” value on SaHPPK [2] (ITC affinity ratio) is given as “approximately 10 fold”. Moreover, the “N (binding stoichiometry)” value at SaHPPK [2] (ITC, 298 K, ligand alone) is recorded as 1.06±0.12. The molecule also gave a TΔS on SaHPPK [2] (ITC, 298 K, ligand alone) of 1.3 ± 1.0 kcal/mol. The same molecule came in with a ΔG on SaHPPK [2] (ITC, 298 K, ligand alone) of -7.5 ± 0.2 kcal/mol. For the same molecule, the ΔH on SaHPPK [2] (ITC, 298 K, ligand alone) was -6.3 ± 1.0 kcal/mol. For the same molecule, the “binding by ITC” value on SaHPPK [2] (setting [14]) is recorded as “no significant binding”.
Consider `Nc1ncnc2c1ncn2[C@@H]1O[C@H](COP(=O)(O)OP(=O)(O)OP(=O)(O)O)[C@@H](O)[C@H]1O` [ATP], for which the Kd was ~45 µM and 45 µM on SaHPPK [1] (setting [9]); 2.6 to 4.5 µM at EcHPPK (setting [12]); 2.6 µM at EcHPPK (setting [13]); 31 ± 4.5 µM at SaHPPK [2] (setting [10]). Also, the “increase in unfolding temperature (Tm)” value with SaHPPK [4] was 6 °C. For the same molecule, the Michaelis constant (Km) on SaHPPK [5] (KinaseGlo assay, read-out: Km app) worked out at 10.8 ± 2.5 µM. For the same molecule, on SaHPPK [2] (ITC, 298 K, ligand alone), the “N (binding stoichiometry)” value is given as 0.98±0.11. At SaHPPK [2] (ITC, 298 K, ligand alone), this molecule displayed a TΔS of -0.3 ± 0.5 kcal/mol. Moreover, the ΔG at SaHPPK [2] (ITC, 298 K, ligand alone) is -6.2 ± 0.1 kcal/mol. Besides, the ΔH on SaHPPK [2] (ITC, 298 K, ligand alone) was -6.5 ± 0.4 kcal/mol. The “binding by ITC” value on SaHPPK [2] (setting [14]) was “no significant binding”.
As to `Nc1ncnc2c1ncn2[C@@H]1O[C@H](COP(=O)(O)OP(=O)(O)O)[C@@H](O)[C@H]1O` [ADP], on SaHPPK [1] (setting [9]), the Kd turned out to be 760 ± 16 µM.
The same measure, in the same setting: under `Nc1ncnc2c1ncn2[C@@H]1O[C@H](COP(=O)(O)O)[C@@H](O)[C@H]1O` [AMP] stands 4900 ± 1100 µM.

Broadly, the Km is the substrate concentration at which the rate is half of its maximum. Usually IC50 stands for the concentration that gives 50% inhibition. As usually defined, the solubility is the concentration that dissolves in the medium under given conditions.

The record behind these values is article PMC3261883, “Structure of S. aureus HPPK and the Discovery of a New Substrate Site Inhibitor” (PLoS ONE, 2012).
